Experiment: In vitro antioxidant effect by the inhibition of AAPH-induced lysis of human red blood cells (RBC)
Type: functional

Structure (SMILES)	IC50 [µM]
NCCS[C@H]1c2c(O)cc(O)cc2O[C@H](c2ccc(O)c(O)c2)[C@@H]1O	89.4
N[C@@H](CS[C@H]1c2c(O)cc(O)cc2O[C@H](c2ccc(O)c(O)c2)[C@@H]1O)C(=O)O	74.9
Oc1cc(O)c2c(c1)O[C@H](c1ccc(O)c(O)c1)[C@H](O)C2 [(-)-EPICATECHIN]	120

From ChEMBL document CHEMBL1137041, “Novel epicatechin derivatives with antioxidant activity modulate interleukin-1beta release in lipopolysaccharide-stimulated human blood” (Bioorg Med Chem Lett, 2004)
